Reference: PubChem BioAssay (NCI)
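Assay format: 96-well plates, 48-hour exposure. TGI: total growth inhibition.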

Key:
Experiment in all cases: NCI anticancer screen, dose series, 48 h
[1] = tested on: 786-0 renal
[2] = tested on: A498 renal
[3] = tested on: CCRF-CEM leukemia
[4] = tested on: EKVX NSCLC
[5] = tested on: HCT-15 colon
[6] = tested on: HOP-92 NSCLC
[7] = tested on: KM12 colon
[8] = tested on: MDA-MB-231 breast
[9] = tested on: NCI-H23 lung
[10] = tested on: NCI/ADR-RES ovarian
[11] = tested on: RXF 393 renal
[12] = tested on: SF-268 CNS
[13] = tested on: SF-539 CNS
[14] = tested on: SNB-19 CNS
[15] = tested on: SNB-75 CNS
[16] = tested on: SR leukemia
[17] = tested on: SW-620 colon
[18] = tested on: T-47D breast
[19] = tested on: UACC-62 melanoma
[20] = tested on: HOP-62 NSCLC

Compound | TGI [1] | TGI [2] | TGI [3] | TGI [4] | TGI [5] | TGI [6] | TGI [7] | TGI [8] | TGI [9] | TGI [10] | TGI [11] | TGI [12] | TGI [13] | TGI [14] | TGI [15] | TGI [16] | TGI [17] | TGI [18] | TGI [19] | TGI [20]
Cc1nc(-c2cccnc2)sc1C(=O)CC(=O)C(=O)Nc1cccc(NC(=O)C(=O)CC(=O)c2sc(-c3cccnc3)nc2C)n1 | > 100 µM | > 100 µM | > 100 µM | > 100 µM | > 100 µM | > 100 µM | > 100 µM | > 100 µM | > 100 µM | > 100 µM | > 100 µM | > 100 µM | > 100 µM | > 100 µM | > 100 µM | > 100 µM | > 100 µM | > 100 µM | > 100 µM | –
CC1CN=C(N(C(=O)Nc2ccc(Cl)cc2)c2cccc(Cl)c2)S1 (configuration not stated) | > 100 µM | 91.8 µM | > 100 µM | > 100 µM | > 100 µM | 65.4 µM | > 100 µM | > 100 µM | > 100 µM | > 100 µM | – | > 100 µM | > 100 µM | > 100 µM | > 100 µM | > 100 µM | > 100 µM | > 100 µM | – | > 100 µM
Nc1ccc2nc3n(c2c1)C(c1c(F)cccc1F)SC3 (configuration not stated) | > 100 µM | > 100 µM | > 100 µM | > 100 µM | > 100 µM | – | > 100 µM | > 100 µM | > 100 µM | > 100 µM | > 100 µM | > 100 µM | > 100 µM | > 100 µM | > 100 µM | > 100 µM | > 100 µM | > 100 µM | > 100 µM | > 100 µM
COc1ccc(CC2Cc3ccccc3CC(=O)N2)cc1OC (configuration not stated) | > 100 µM | > 100 µM | > 100 µM | > 100 µM | > 100 µM | > 100 µM | > 100 µM | > 100 µM | > 100 µM | > 100 µM | – | – | > 100 µM | > 100 µM | > 100 µM | > 100 µM | > 100 µM | 58.5 µM | > 100 µM | > 100 µM
CS(=O)(=O)c1ccc(C(=O)O[C@@H]2C(=O)N3CC[C@H]4OC(O)[C@@H]2[C@H]43)cc1 (some centres not stated) | > 100 µM | > 100 µM | – | > 100 µM | > 100 µM | – | > 100 µM | > 100 µM | > 100 µM | > 100 µM | > 100 µM | > 100 µM | > 100 µM | > 100 µM | > 100 µM | > 100 µM | > 100 µM | > 100 µM | > 100 µM | > 100 µM
Cc1cc(OP2(=O)NCc3ccncc3O2)ccc1Cl (configuration not stated) | > 100 µM | > 100 µM | > 100 µM | > 100 µM | > 100 µM | > 100 µM | > 100 µM | > 100 µM | > 100 µM | > 100 µM | > 100 µM | – | > 100 µM | > 100 µM | > 100 µM | > 100 µM | > 100 µM | > 100 µM | > 100 µM | > 100 µM
CCCC(=O)Nc1cc(/C=C/C(=O)N2CC(CCl)c3ccc([N+](=O)[O-])cc32)n(C)c1 (configuration not stated) | > 100 µM | – | 29.4 µM | > 100 µM | > 100 µM | – | > 100 µM | > 100 µM | > 100 µM | > 100 µM | > 100 µM | > 100 µM | > 100 µM | > 100 µM | > 100 µM | > 100 µM | > 100 µM | > 100 µM | > 100 µM | –
Cc1cn(CC2(CO)CCC2)c(=O)[nH]c1=O | > 100 µM | > 100 µM | > 100 µM | > 100 µM | > 100 µM | – | > 100 µM | > 100 µM | > 100 µM | > 100 µM | > 100 µM | – | > 100 µM | – | > 100 µM | > 100 µM | > 100 µM | > 100 µM | > 100 µM | > 100 µM
CCOC(=O)c1ccc(NCc2ccc3nc(OC)c(OC)nc3c2)cc1 | > 100 µM | > 100 µM | > 100 µM | > 100 µM | > 100 µM | > 100 µM | > 100 µM | > 100 µM | > 100 µM | > 100 µM | – | > 100 µM | > 100 µM | > 100 µM | > 100 µM | > 100 µM | > 100 µM | > 100 µM | > 100 µM | > 100 µM
CC(=O)OC(OC(C)=O)c1c2ccccc2cc2ccccc12 | 43.5 µM | 40.7 µM | 18 µM | 50.4 µM | 56 µM | 57.5 µM | 33.4 µM | 40.1 µM | > 100 µM | 46.7 µM | 31 µM | 51.8 µM | 36.1 µM | 96.3 µM | 43.9 µM | 56.3 µM | > 100 µM | 85.2 µM | 41.7 µM | –
Cc1cc2c3c(nc2c2cc[nH]c(C)c12)CCCC3 | 3.04 µM | – | 6.48 µM | 8.44 µM | 3.54 µM | 7.3 µM | 7.13 µM | 3.17 µM | 10.4 µM | 19.5 µM | – | 14 µM | 3.72 µM | – | 4.02 µM | 4.29 µM | 3.79 µM | 4.53 µM | 3.32 µM | 3.62 µM
Cc1ccc(C(=O)C2C=C(c3ccc(C)cc3)SC3C=CCC32)cc1 (configuration not stated) | 38.3 µM | 58.4 µM | 38.3 µM | 97.6 µM | 47.9 µM | 34 µM | 30.3 µM | 43.8 µM | 53 µM | 40.8 µM | 37.7 µM | – | 32.2 µM | > 100 µM | – | 58.2 µM | 29.8 µM | 50.6 µM | 38.8 µM | 45.2 µM
Cc1ccc(F)c2[nH]c(-c3ccccc3)cc(=O)c12 | > 43.4 µM | > 100 µM | > 100 µM | > 100 µM | > 100 µM | – | > 100 µM | > 100 µM | > 65.8 µM | > 100 µM | 21.5 µM | > 67 µM | 28.5 µM | > 100 µM | > 30.6 µM | > 100 µM | > 100 µM | > 100 µM | > 100 µM | > 100 µM
